Results as given in PMC9653166 (Journal of medicinal chemistry, 2022).

Experiments:
[1] = molecular target: T1, Sirt3 (Homo sapiens, UniProt Q9NTG7); test: Coupled enzymatic deacetylation assay, Sirt3 with ACS2-acK642 peptide; assay type: biochemical; conditions: for Effect on Sirt3 activity (in words): coupled assay, ACS2 peptide, 10 and 100 μM compound
T1 sequence (Q9NTG7 114-380): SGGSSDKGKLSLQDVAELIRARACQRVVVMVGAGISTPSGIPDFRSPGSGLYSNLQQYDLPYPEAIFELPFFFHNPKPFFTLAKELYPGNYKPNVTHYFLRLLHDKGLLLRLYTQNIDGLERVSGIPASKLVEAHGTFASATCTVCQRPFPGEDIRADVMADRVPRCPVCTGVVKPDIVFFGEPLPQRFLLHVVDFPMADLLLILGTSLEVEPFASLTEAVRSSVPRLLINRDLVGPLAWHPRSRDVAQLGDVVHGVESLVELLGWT

[2] = system: Sirt1-3; conditions: FdL substrate; cited from earlier work
[3] = molecular target: T2, Sirt5 (Homo sapiens, UniProt Q9NXA8); conditions: cited from earlier work
T2 sequence (Q9NXA8 37-310): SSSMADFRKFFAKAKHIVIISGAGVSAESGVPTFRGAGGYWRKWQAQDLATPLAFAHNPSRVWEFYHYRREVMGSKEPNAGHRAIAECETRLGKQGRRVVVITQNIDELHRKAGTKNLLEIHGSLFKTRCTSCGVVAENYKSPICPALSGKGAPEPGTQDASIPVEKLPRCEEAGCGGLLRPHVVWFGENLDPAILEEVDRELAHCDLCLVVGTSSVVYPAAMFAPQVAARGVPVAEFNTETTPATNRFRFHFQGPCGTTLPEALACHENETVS

[4] = molecular target: T3, Sirt5 (Homo sapiens, UniProt Q9NXA8); test: Coupled enzymatic desuccinylation assay, Sirt5 with CPS1-succK537 peptide; assay type: biochemical; conditions: for Effect on Sirt5 activity (in words): coupled assay, 10 and 100 μM compound
T3 sequence (Q9NXA8 34-302): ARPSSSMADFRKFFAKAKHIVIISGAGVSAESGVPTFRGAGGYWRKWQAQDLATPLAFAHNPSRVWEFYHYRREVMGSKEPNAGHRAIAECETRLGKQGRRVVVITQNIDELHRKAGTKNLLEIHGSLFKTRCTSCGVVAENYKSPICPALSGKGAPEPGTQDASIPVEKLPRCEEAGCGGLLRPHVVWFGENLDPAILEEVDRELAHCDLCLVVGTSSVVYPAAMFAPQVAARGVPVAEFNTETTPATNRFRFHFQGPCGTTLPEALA

[5] = system: GOT1 acetylation; test: GOT1 acetylation Western blot in pancreatic cancer cell lines; assay type: cell-based; conditions: for GOT1 acetylation: S2–013 and Capan1 cell lines, 20 μM, 24 h; for Effect on GOT1 acetylation: SIRT5 knockout KPC and KPCS cell lines
[6] = system: glutaminase (GLS); test: GLS activity assay in MDA-MB-231 cell lysates; assay type: cell-based, human; conditions: MDA-MB-231 cells, 50 μM, 4 and 24 h
[7] = system: GDH; test: GDH activity assay in MDA-MB-231 cell lysates; assay type: cell-based, human; conditions: wild-type MDA-MB-231 cells, 50 μM, 4 or 24 h
[8] = system: MDA-MB-231 cells; test: Ammonia level assay, MDA-MB-231 cells; assay type: cell-based, human; conditions: 50 μM, 4 and 24 h
[9] = molecular target: T2, Sirt5; test: PDC deacylation assay: PDHA1 desuccinylation by recombinant Sirt5; assay type: biochemical; conditions: 100 μM compound, PDHA1 from porcine heart tissue
[10] = molecular target: T4, Sirt1 (Homo sapiens, UniProt Q96EB6); test: Coupled enzymatic deacetylation assay, Sirt1 with p53-acK381 peptide; assay type: biochemical; conditions: 10 and 100 μM compound
T4 sequence (Q96EB6 1-747): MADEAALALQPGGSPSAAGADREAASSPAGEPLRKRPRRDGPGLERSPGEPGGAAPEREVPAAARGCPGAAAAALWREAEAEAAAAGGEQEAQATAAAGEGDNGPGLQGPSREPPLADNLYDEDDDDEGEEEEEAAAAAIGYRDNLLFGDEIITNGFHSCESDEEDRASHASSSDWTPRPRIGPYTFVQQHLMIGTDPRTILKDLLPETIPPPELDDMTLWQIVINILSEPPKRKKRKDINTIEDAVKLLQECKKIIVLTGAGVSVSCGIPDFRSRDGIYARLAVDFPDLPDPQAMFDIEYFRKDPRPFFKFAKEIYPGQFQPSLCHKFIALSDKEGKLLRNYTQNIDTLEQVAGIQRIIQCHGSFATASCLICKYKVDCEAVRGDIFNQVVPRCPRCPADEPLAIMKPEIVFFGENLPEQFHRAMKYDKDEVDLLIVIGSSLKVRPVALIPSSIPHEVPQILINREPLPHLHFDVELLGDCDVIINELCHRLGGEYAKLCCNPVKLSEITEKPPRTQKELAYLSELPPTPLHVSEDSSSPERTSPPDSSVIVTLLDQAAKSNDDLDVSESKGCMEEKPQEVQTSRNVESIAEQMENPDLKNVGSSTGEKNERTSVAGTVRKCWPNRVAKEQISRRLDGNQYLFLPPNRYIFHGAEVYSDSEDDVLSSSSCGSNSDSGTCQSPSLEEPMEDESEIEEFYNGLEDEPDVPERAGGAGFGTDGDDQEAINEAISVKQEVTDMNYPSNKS

[11] = molecular target: Sirt6 (Homo sapiens, UniProt Q8N6T7); test: Sirt6 activity test; assay type: biochemical; conditions: 100 μM compound
[12] = molecular target: T3, Sirt5; test: MS-based desuccinylation assay, Sirt5 with CPS1-succK537; assay type: biochemical; conditions: 100 μM compound
[13] = molecular target: T5, Sirt2 (Homo sapiens, UniProt Q8IXJ6); test: Coupled enzymatic deacetylation assay, Sirt2 with α-tubulin-acK25 peptide; assay type: biochemical; conditions: coupled assay, 10 and 100 μM compound
T5 sequence (Q8IXJ6 43-356): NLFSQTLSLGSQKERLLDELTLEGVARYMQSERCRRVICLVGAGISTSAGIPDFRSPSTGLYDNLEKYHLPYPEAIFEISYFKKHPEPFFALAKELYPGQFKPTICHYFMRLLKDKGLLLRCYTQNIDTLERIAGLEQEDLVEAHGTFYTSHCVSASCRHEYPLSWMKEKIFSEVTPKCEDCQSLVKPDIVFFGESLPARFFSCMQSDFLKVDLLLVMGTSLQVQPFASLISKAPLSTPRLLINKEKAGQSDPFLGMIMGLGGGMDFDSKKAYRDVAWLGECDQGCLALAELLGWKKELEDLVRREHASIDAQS

[14] = molecular target: T1, Sirt3; test: Microscale thermophoresis binding to Sirt3
[15] = molecular target: T3, Sirt5; test: NAD+ titration kinetics of Sirt5; assay type: biochemical; conditions: in presence of 200 μM compound (without compound 1.6 ± 0.1)
[16] = molecular target: T6, Sirt4 (Homo sapiens, UniProt Q9Y6E7); test: Sirt4 activity test; assay type: biochemical; conditions: 100 μM compound
T6 sequence (Q9Y6E7 29-314): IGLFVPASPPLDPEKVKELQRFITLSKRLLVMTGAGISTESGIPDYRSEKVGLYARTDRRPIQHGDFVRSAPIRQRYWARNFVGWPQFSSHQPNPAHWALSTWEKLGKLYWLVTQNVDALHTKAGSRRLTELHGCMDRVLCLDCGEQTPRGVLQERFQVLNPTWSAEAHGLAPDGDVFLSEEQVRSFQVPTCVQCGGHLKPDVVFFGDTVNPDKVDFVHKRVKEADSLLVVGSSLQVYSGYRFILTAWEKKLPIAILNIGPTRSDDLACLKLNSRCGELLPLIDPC

[17] = system: GDH acetylation; test: GDH immunoprecipitation and Lys acetylation Western blot, MDA-MB-231 cells; assay type: cell-based, human; conditions: 50 μM
[18] = molecular target: T1, Sirt3; test: Sirt3-dependent deacetylation of a panel of eleven acetylated peptides; assay type: biochemical
[19] = molecular target: T1, Sirt3; test: MS-based deacetylation assay, Sirt3 with ACS2 peptide; assay type: biochemical; conditions: 100 μM compound
[20] = molecular target: T3, Sirt5; test: Microscale thermophoresis binding to Sirt5
[21] = molecular target: T7, Sirt3 (Homo sapiens, UniProt Q9NTG7); test: Cellular SIRT3 deacetylase activity assay; assay type: cell-based; conditions: MDA-MB-231 cells, 50 and 100 μM, 3 h
T7 sequence (Q9NTG7 1-399): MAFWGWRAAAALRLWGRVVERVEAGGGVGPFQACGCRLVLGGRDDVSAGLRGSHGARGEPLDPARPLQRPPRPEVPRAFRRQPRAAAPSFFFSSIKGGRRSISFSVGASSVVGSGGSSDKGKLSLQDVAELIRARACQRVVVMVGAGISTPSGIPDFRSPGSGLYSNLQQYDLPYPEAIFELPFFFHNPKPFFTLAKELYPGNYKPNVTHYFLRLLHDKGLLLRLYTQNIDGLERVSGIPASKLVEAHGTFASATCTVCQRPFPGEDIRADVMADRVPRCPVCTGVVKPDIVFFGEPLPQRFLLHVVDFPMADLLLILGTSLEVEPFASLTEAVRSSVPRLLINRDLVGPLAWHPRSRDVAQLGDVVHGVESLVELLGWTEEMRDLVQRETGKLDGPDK

[22] = system: Sirt3; conditions: cited from earlier work

Sequence of Sirt6 (Q8N6T7 whole entry): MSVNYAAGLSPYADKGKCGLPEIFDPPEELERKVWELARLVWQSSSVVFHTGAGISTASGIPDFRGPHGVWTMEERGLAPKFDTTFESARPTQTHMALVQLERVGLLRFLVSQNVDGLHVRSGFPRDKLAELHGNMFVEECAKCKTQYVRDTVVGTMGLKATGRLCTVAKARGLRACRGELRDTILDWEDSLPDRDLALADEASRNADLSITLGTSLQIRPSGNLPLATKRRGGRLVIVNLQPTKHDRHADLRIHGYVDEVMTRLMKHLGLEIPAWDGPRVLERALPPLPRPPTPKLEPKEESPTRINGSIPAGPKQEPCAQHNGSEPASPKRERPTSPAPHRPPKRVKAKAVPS

Row | SMILES | Effect on Sirt3 activity (in words) [1] | Effect on Sirt5 activity (in words) [4] | GOT1 acetylation [5] | Effect on GOT1 acetylation [5] | GLS activity in cell lysates [6] | GDH activity in cell lysates [7] | Ammonia accumulation [8] | Effect on Sirt1 activity (in words) [10] | Effect on Sirt6 [11] | Effect on Sirt2 activity (in words) [13] | Kd [14] [µM] | Effect on Sirt4 [16] | also measured
1 | CCOC(=O)C1=CN(Cc2ccccc2)C=C(C(=O)OCC)C1c1ccccc1 [Compound 1] | Sirt3 activation |  |  |  |  |  |  |  |  |  |  |  | Sirt1-3 activation in the FdL assay [2]: Sirt1-3 activating properties
2 | CCOC(=O)C1=CN(C(=O)c2ccccc2)C=C(C(=O)OCC)C1c1cccc(OC)c1 [Compound 19] |  | specific Sirt5 activation | decrease GOT1 acetylation | negligible | decreased GLS activity | decreased GDH activity | blocked ammonia accumulation |  |  |  |  |  | In vitro Sirt5 deacetylase activity [3]: increase in vitro Sirt5 deacetylase activity; Sirt5 activation (CPS1-succK537 desuccinylation) ([4]; 10 μM compound): 1.2- to 1.5 fold
3 | CCOC(=O)C1=CN(C(=O)c2ccccc2)C=C(C(=O)OCC)C1c1ccsc1 [Compound 30, Diethyl 1-Benzoyl-4-(thiophen-3-yl)-1,4-dihydropyridine-3,5-dicarboxylate] | no significant effects |  | decrease GOT1 acetylation | negligible | decreased GLS activity | decreased GDH activity | blocked ammonia accumulation | no significant effects | weak, partial inhibition | no significant effects | 138 ± 37 | weak, partial inhibition | Sirt5-dependent desuccinylation of PDHA1 [9]: clearly enhanced; EC50 [4]: ~40 µM; Sirt5 activation (CPS1-succK537 desuccinylation) ([4]; 100 μM compound): 3- to 3.5 fold; Maximum activation of Sirt5 ([4]; titration, beyond 200 μM compound concentration): 5 fold; Sirt5 activation in MS-based assay [12]: confirmed the activation of Sirt5-dependent desuccinylation; NAD+ kinetics vmax of Sirt5 [15]: 2.3 ± 0.1 nmol/mg/min
4 | CCOC(=O)C1=CN(C(=O)c2cc(OC)c(OC)c(OC)c2)C=C(C(=O)OCC)C1c1ccccc1 [Compound 31, Diethyl 4-Phenyl-1-(3,4,5-trimethoxybenzoyl)-1,4-dihydropyridine-3,5-dicarboxylate] |  | no significant effects |  |  |  |  |  | no significant effects | no significant effects | no significant effects | 32 ± 7 | partial Sirt4 inhibition | GDH overall Lys acetylation [17]: decreased acetylation levels; Stimulation of Sirt3-dependent deacetylation of all panel substrates ([18]; 10 μM compound): weakly; Stimulation of Sirt3-dependent deacetylation of all panel substrates ([18]; 100 μM compound): significantly; Sirt3 activation in MS-based assay [19]: activated Sirt3-dependent deacetylation of the ACS2 peptide; Kd [20]: 83 ± 19 µM; Sirt3 activity ([1]; 100 μM compound): more than 400%; FdL deacetylation (Sirt3) activity in cell lysates [21]: significant increase in FdL deacetylation activity
5 | C=CCc1ccc(O)c(-c2ccc(O)c(CC=C)c2)c1 [honokiol] |  |  |  |  |  |  |  |  |  |  |  |  | Sirt3 activation [22]: weakly activate Sirt3
